Results from US9734575B2, “Method for assessing cell aging” (CHRONOS THERAPEUTICS LIMITED, priority 2013, dated 2017).

Test system: AM134bus-5 mutant C. elegans
Assay: FUDR treatment (transfer and topical) to prevent second generation progeny in synchronised worm populations on multi-well plates
Assay type: in vivo, Caenorhabditis elegans
Protocol: Topical and transfer methods of FUDR application were compared and the optimal concentration of the FUDR on 24 well, 12 well and 6 well plates, assessed.
AM134bus-5 and bus-8 drug sensitive worms were synchronized by bleaching and then plated onto multi-well plates and allowed to develop to adulthood. The adults in half of the wells were transferred to a separate well which had been soaked with varying amounts of FUDR solution using M9 buffer. The remaining wells were treated topically with FUDR.
The cultures were then regularly imaged by bright field microscopy and fed with OP50 when necessary.

O=c1[nH]c(=O)n([C@H]2C[C@H](O)[C@@H](CO)O2)cc1F [FUDR, 2′-Deoxy-5-fluorouridine]
progeny after 11 days (6 well plates, FUDR 2 μg/ml (25 μl of 10 mg/ml to 5 ml NGM), topical and transfer): no progeny can be observed | lowest effective dose at preventing the development of progeny (6 well plates, volume of 10 mg/ml FUDR to 5 ml of NGM, 1, 5, 10, 25 and 50 μl tested): 25 µL | optimal addition of 10 mg/ml FUDR per well for preventing progeny worms from developing (12 well plate (1.7 ug/ml in 2.5 ml NGM)): 0.015 mL | progeny after 11 days (12 well plates, FUDR 1.7 μg/ml (15 μl of 10 mg/ml to 2.5 ml NGM), topical application): no progeny can be observed | lowest effective dose at preventing the development of progeny (12 well plates, volume of 10 mg/ml FUDR to 2.5 ml of NGM, 1, 5, 10, 15 and 20 μl tested): 15 µL | progeny after 11 days (24 well plates, FUDR 2 μg/ml (5 μl of 10 mg/ml to 1 ml NGM), topical and transfer method): progeny can be observed
